Assay [1] has as its target Human CB1R (Cannabinoid receptor 1) (Homo sapiens, UniProt P21554). Description: CB-1 in vitro cAMP (HTRF) assay. Particulars: cAMP HTRF, 250 nM forskolin, mean where tested more than once. The class given is cell-based. The gist of the method:
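Intracellular cAMP from HTRF ratio (d2-cAMP vs Eu-cryptate anti-cAMP), converted to nM via per-plate standards, in stable human CB1R HEK-293 cells.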
On the technique in general: TR-FRET usually uses a lanthanide donor and a delayed reading to cut background.

Assay [2] deals with Human CB2R (Cannabinoid receptor 2) (Homo sapiens, UniProt P34972). In words: CB-2 in vitro cAMP (HTRF) assay. Format: cell-based. Particulars: HEK cells, cAMP HTRF, 250 nM forskolin; mean where tested more than once; read-out: CB2 HEK_cAMP EC50. The gist of the method: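 Competitive HTRF read-out (d2-labelled cAMP vs cryptate antibody) quantifies cAMP in stably transfected HEK-293 cells, seeded the day before at 4E5 cells/mL. Stimulation buffer: HBSS, 5 mM HEPES, 0.1% BSA, 0.5 mM IBMX; forskolin prepared at 1.5 μM in buffer; compounds serially diluted 1/3 in DMSO.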
Human CB2R (Cannabinoid receptor 2), sequence (P34972 whole entry): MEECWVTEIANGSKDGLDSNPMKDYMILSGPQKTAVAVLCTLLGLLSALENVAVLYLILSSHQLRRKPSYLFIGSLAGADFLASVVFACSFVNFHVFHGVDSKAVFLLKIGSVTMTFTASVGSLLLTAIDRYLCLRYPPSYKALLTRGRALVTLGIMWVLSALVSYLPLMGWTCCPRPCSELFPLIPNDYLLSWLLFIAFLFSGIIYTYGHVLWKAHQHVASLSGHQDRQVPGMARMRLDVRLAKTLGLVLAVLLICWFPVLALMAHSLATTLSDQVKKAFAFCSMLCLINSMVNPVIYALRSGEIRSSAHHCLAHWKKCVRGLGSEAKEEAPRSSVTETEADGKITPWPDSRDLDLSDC

Where [3] appears, read: HEK cells, read-out: CB1 HEK_cAMP EC50.

Where two headings read alike, the source gives them in different places.

Human CB1R (Cannabinoid receptor 1), sequence (P21554 whole entry): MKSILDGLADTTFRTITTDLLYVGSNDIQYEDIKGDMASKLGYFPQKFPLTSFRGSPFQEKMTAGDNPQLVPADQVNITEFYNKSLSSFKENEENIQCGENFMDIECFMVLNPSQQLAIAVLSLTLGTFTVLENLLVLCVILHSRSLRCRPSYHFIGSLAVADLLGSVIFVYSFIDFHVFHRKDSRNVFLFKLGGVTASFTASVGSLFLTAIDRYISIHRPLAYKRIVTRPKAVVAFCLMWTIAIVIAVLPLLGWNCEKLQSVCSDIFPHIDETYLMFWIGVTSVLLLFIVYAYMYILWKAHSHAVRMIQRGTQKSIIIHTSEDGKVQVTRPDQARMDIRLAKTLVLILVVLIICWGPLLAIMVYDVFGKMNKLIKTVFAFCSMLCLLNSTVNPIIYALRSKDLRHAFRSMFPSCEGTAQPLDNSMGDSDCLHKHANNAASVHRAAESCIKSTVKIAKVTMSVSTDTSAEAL

As for `Clc1ccc(C(c2ccc(Cl)cc2)c2ccc3nc(C4CC4)n(CC4CCOCC4)c3c2)cc1` [Example 120], the EC50 (usually the midpoint of the concentration-response curve) turned out to be 24.9 nM in assay [1] (CB1 HEK_cAMP EC50, HEK cells) and 5430 nM in assay [2].

Turning to `O=C(O)c1cccc(-c2ccc(CCn3c(C4CC4)nc4ccc(C(c5ccc(Cl)cc5)c5ccc(Cl)cc5)cc43)cc2)c1` [Example 24], the values for the EC50 in assay [1] (setting [3]) and in assay [2] were 1940 nM and 7300 nM, respectively.

For the compound `CC(C)(C)c1csc(C(c2ccc(Cl)cc2)c2ccc3ncn(Cc4ccc(Cl)cc4)c3c2)n1` (centres unmarked) [Example 449], the EC50 in assay [1] (setting [3]) and in assay [2] was greater than 10000 nM in each case.

As to `CCCc1nc2ccc(C(c3ccc(Cl)cc3)c3nccs3)cc2n1-c1cccc(Cl)c1` (centres unmarked) [Example 431], the values for the EC50 in assay [1] (setting [3]) and in assay [2] were 111 nM and greater than 10000 nM, respectively.

`CCOC(=O)N1CCC(n2c(C)nc3ccc(C(c4ccc(Cl)cc4)c4nccs4)cc32)CC1` (centres unmarked) [Example 445]: the EC50 was 947 nM in assay [1] (setting [3]) and greater than 10000 nM in assay [2].

With `O=S(=O)(N1CCC(n2c(-c3ccc(Cl)cc3)nc3ccc(C(c4ccc(Cl)cc4)c4nccs4)cc32)CC1)C(F)(F)F` (centres unmarked) [Example 394], the EC50 is 4840 nM in assay [1] (setting [3]) and greater than 10000 nM in assay [2].

In the case of `NC(=O)c1ccc(S(=O)(=O)N2CCC(n3c(C4CC4)nc4ccc(C(CO)(c5ccc(Cl)cc5)c5ccc(Cl)cc5)cc43)CC2)cc1` [Example 227], the EC50 was 2040 nM in assay [1] (setting [3]) and greater than 10000 nM in assay [2].

Take `Cc1nc2ccc(C(c3ccc(Cl)cc3)c3nccs3)cc2n1Cc1ccc(Cl)cc1` (centres unmarked) [Example 463]: the concentration giving a half-maximal response (EC50) was 164 nM in assay [1] (setting [3]) and greater than 7600 nM in assay [2].

On to `O=C(O)c1ccc(N[C@H]2CC[C@@H](n3c(C4CC4)nc4ccc(C(c5ccc(Cl)cc5)c5ccc(Cl)cc5)cc43)CC2)cc1` [Example 32], for which the values for the EC50 in assay [1] (setting [3]) and in assay [2] were 39.5 nM and 2160 nM, respectively.

For the compound `O=C(OCc1ccccc1)N1CCC(n2c(C3CC3)nc3ccc(C(c4ccc(Cl)cc4)c4ccc(Cl)cc4)cc32)CC1` [Example 69], the EC50 in assay [1] (setting [3]) amounted to 8.6 nM; in assay [2], 1210 nM.

Regarding `Cc1ccc(S(=O)(=O)N2CCC(n3c(C4CC4)nc4ccc(C(c5ccc(Cl)cc5)c5ccc(Cl)cc5)cc43)CC2)cc1C(=O)O` [Example 188], the EC50 was 160 nM in assay [1] (setting [3]) and greater than 10000 nM in assay [2].

Take `COC(=O)c1ccc(OCCn2c(C3CC3)nc3ccc(C(c4ccc(Cl)cc4)c4ccc(Cl)cc4)cc32)nc1` [Example 34]: the results for the EC50 in assay [1] (setting [3]) and in assay [2] were 37.5 nM and 6800 nM, respectively.

Turning to `COc1ccc(S(=O)(=O)N2CCC(n3c(C4CC4)nc4ccc(C(c5ccc(Cl)cc5)c5ccc(Cl)cc5)cc43)CC2)cc1F` [Example 225], the EC50 in assay [1] (setting [3]) was 41.5 nM; in assay [2], greater than 10000 nM.

As for `CC(c1cccc(C(=O)O)c1)N1CCC(n2c(C3CC3)nc3ccc(C(c4ccc(Cl)cc4)c4ccc(Cl)cc4)cc32)CC1` (single isomer, unassigned) [Example 48], the figures for the EC50 in assay [1] (setting [3]) and in assay [2] were 3 nM and 3840 nM, respectively.

On to `C#CCN1CCC(n2c(C3CC3)nc3ccc(C(c4ccc(Cl)cc4)c4ccc(Cl)cc4)cc32)CC1` [Example 76], for which the figures for the EC50 in assay [1] (setting [3]) and in assay [2] were 6.7 nM and 2060 nM, respectively.

With `CC(c1cccc(C(=O)O)c1)N1CCC(n2c(C3CC3)nc3ccc(C(c4ccc(Cl)cc4)c4ccc(Cl)cc4)cc32)CC1` (single isomer, unassigned) [Example 47], the EC50 in assay [1] (setting [3]) amounted to 2.4 nM; in assay [2], 17100 nM.

`O=C(O)c1cc(CN2CCC(n3c(C4CC4)nc4ccc(C(c5ccc(Cl)cc5)c5ccc(Cl)cc5)cc43)CC2)ccn1` [Example 83]: the EC50 stood at 42.6 nM in assay [1] (setting [3]) and 11300 nM in assay [2].

On to `FC(F)(F)Cc1nc2ccc(C(c3ccc(Cl)cc3)c3nccs3)cc2n1CCc1cccc(Cl)c1` (centres unmarked) [Example 340], for which the EC50 is 1440 nM in assay [1] (setting [3]) and greater than 10000 nM in assay [2].

On to `NC(=O)c1ccc(S(=O)(=O)N2CCC(n3c(C4CC4)nc4ccc(C(c5ccc(Cl)cc5)c5ccc(Cl)cc5)cc43)CC2)cc1Cl` [Example 252], for which the EC50 in assay [1] (setting [3]) stood at 13.1 nM; in assay [2], 6240 nM.

With `CCOC(=O)N1CCC(n2c(CC)nc3ccc(C(c4ccc(Cl)cc4)c4ccc(Cl)cc4)cc32)CC1` [Example 332], the EC50 in assay [1] (setting [3]) was determined as 14.7 nM; in assay [2] it was 4700 nM.

For `O=S(=O)(N1CCC(n2c(CO)nc3ccc(C(O)(c4ccc(Cl)cc4)c4ccc(Cl)cc4)cc32)CC1)C(F)(F)F` [Example 293], the EC50 in assay [1] (setting [3]) is 7430 nM; in assay [2], greater than 10000 nM.

For `Clc1ccc(C(c2ccc3nc(C4CC4)n(-c4cccc(Cl)c4)c3c2)c2nccs2)cc1` (centres unmarked) [Example 432], the results for the concentration giving a half-maximal response (EC50) in assay [1] (setting [3]) and in assay [2] were 64.3 nM and greater than 10000 nM, respectively.

On to `NC(=O)c1ccc(C(=O)N2CCC(n3c(C4CC4)nc4ccc(C(c5ccc(Cl)cc5)c5ccc(Cl)cc5)cc43)CC2)cn1` [Example 223], for which the EC50 in assay [1] (setting [3]) is 24.8 nM; in assay [2], 3340 nM.

As for `O=C(Oc1ccccc1)N1CCC(n2c(C3CC3)nc3ccc(C(c4ccc(Cl)cc4)c4ccc(Cl)cc4)cc32)CC1` [Example 61], the EC50 is 19 nM in assay [1] (setting [3]) and greater than 21000 nM in assay [2].

As to `CC(C)Cc1nc2ccc(C(c3ccc(Cl)cc3)c3nccs3)cc2n1C1CCN(S(=O)(=O)C(F)(F)F)CC1` (centres unmarked) [Example 396], the figures for the EC50 in assay [1] (setting [3]) and in assay [2] were 221 nM and 91 nM, respectively.

For the compound `O=C(CCO)N1CCC(n2c(C3CC3)nc3ccc(C(c4ccc(Cl)cc4)c4ccc(Cl)cc4)cc32)CC1` [Example 234], the EC50 in assay [1] (setting [3]) is 16.1 nM; in assay [2] it was 9530 nM.

Turning to `CCc1nc2ccc(C(CO)(c3ccc(Cl)cc3)c3ccc(Cl)cc3)cc2n1C1CCN(S(=O)(=O)C(F)(F)F)CC1` [Example 244], the values for the EC50 in assay [1] (setting [3]) and in assay [2] were 534 nM and greater than 10000 nM, respectively.

Consider `O=C(O)c1cccc(N2CCC(n3c(C4CC4)nc4ccc(C(c5ccc(Cl)cc5)c5ccc(Cl)cc5)cc43)CC2)c1` [Example 163], for which the half-maximal effective concentration (EC50) in assay [1] (setting [3]) was determined as 91.6 nM; in assay [2] it was 7780 nM.

For `O=C(O)c1ccc(S(=O)(=O)N2CCC(n3c(C4CC4)nc4ccc(C(c5ccc(Cl)cc5)c5ccc(Cl)cc5)cc43)CC2)cc1Cl` [Example 253], the EC50 in assay [1] (setting [3]) is 4.7 nM; in assay [2] it was 2420 nM.

For `O=C(O)CCc1nc2ccc(C(c3ccc(Cl)cc3)c3ccc(Cl)cc3)cc2n1C1CCN(S(=O)(=O)C(F)(F)F)CC1` [Example 78], the EC50 is 151 nM in assay [1] (setting [3]) and greater than 21000 nM in assay [2].

For `CC(c1ccc(Cl)cc1)n1c(C2CC2)nc2ccc(C(c3ccc(Cl)cc3)c3nccs3)cc21` (centres unmarked) [Example 401], the EC50 in assay [1] (setting [3]) is 6020 nM; in assay [2], greater than 10000 nM.

Regarding `O=C(O)CN1CCC(n2c(C3CC3)nc3ccc(C(c4ccc(Cl)cc4)c4ccc(Cl)cc4)cc32)CC1` [Example 63], the EC50 is greater than 10000 nM in assay [1] (setting [3]) and greater than 21000 nM in assay [2].

Consider `COc1cc(C(c2ccc(Cl)cc2)c2ccc(Cl)cc2)cc2c1nc(C1CC1)n2C1CCN(S(=O)(=O)C(F)(F)F)CC1` [Example 287], for which the EC50 in assay [1] (setting [3]) is 2.4 nM; in assay [2], 4590 nM.

`CCOC(=O)N1CCC(n2c(-c3ccc(Cl)cc3)nc3ccc(C(c4ccc(Cl)cc4)c4nccs4)cc32)CC1` (centres unmarked) [Example 418]: the EC50 was 1080 nM in assay [1] (setting [3]) and greater than 10000 nM in assay [2].

On to `FC(F)(F)c1nc2ccc(C(c3ccc(Cl)cc3)c3nccs3)cc2n1CCc1cccc(Cl)c1` (centres unmarked) [Example 424], for which the EC50 in assay [1] (setting [3]) was 2320 nM; in assay [2] it was greater than 10000 nM.

For the compound `CC(c1cccc(C(=O)O)c1)N1CCC(n2c(C3CC3)nc3ccc(C(c4ccc(Cl)cc4)c4ccc(Cl)cc4)cc32)CC1` (centres unmarked) [Example 87], the results for the EC50 in assay [1] (setting [3]) and in assay [2] were 9 nM and 9000 nM, respectively.

Regarding `NC(=O)c1csc(S(=O)(=O)N2CCC(n3c(C4CC4)nc4ccc(C(c5ccc(Cl)cc5)c5ccc(Cl)cc5)cc43)CC2)c1` [Example 216], the EC50 is 6.2 nM in assay [1] (setting [3]) and greater than 10000 nM in assay [2].

`O=C(O)c1cccc(OCCN2CCC(n3c(C4CC4)nc4ccc(C(c5ccc(Cl)cc5)c5ccc(Cl)cc5)cc43)CC2)c1` [Example 44]: the results for the EC50 in assay [1] (setting [3]) and in assay [2] were 14.6 nM and 2440 nM, respectively.

Consider `O=C(O)c1ccc(CN2CCC(n3c(C4CC4)nc4ccc(C(c5ccc(Cl)cc5)c5ccc(Cl)cc5)cc43)CC2)cn1` [Example 106], for which the EC50 in assay [1] (setting [3]) is 60.1 nM; in assay [2], greater than 10000 nM.

For `Clc1ccc(C(c2ccc3nc(C4CNC4)n(CCc4cccc(Cl)c4)c3c2)c2nccs2)cc1` (centres unmarked) [Example 404], the EC50 was 6150 nM in assay [1] (setting [3]) and greater than 10000 nM in assay [2].

As for `O=S(=O)(c1ccccc1)N1CCC(n2c(C3CC3)nc3ccc(C(c4ccc(Cl)cc4)c4ccc(Cl)cc4)cc32)CC1` [Example 283], the EC50 is 3.6 nM in assay [1] (setting [3]) and 960 nM in assay [2].

With `NC(=O)COc1cccc(-n2c(C3CC3)nc3ccc(C(c4ccc(Cl)cc4)c4ccc(Cl)cc4)cc32)c1` [Example 172], the EC50 in assay [1] (setting [3]) was 81.2 nM; in assay [2], greater than 10000 nM.

Consider `NC(=O)CS(=O)(=O)N1CCC(n2c(C3CC3)nc3ccc(C(c4ccc(Cl)cc4)c4ccc(Cl)cc4)cc32)CC1` [Example 247], for which the EC50 in assay [1] (setting [3]) was 128 nM; in assay [2] it was greater than 10000 nM.

Regarding `O=S(=O)(c1ccc(C(F)(F)F)cc1)N1CCC(n2c(C3CC3)nc3ccc(C(c4ccc(Cl)cc4)c4ccc(Cl)cc4)cc32)CC1` [Example 280], the figures for the EC50 in assay [1] (setting [3]) and in assay [2] were 10.5 nM and greater than 10000 nM, respectively.

Consider `COC(=O)c1cccc(OCCn2c(C3CC3)nc3ccc(C(c4ccc(Cl)cc4)c4ccc(Cl)cc4)cc32)c1` [Example 26], for which the EC50 in assay [1] (setting [3]) is 103 nM; in assay [2], 3310 nM.

Turning to `CC(c1cccc(O)c1)N1CCC(n2c(C3CC3)nc3ccc(C(c4ccc(Cl)cc4)c4ccc(Cl)cc4)cc32)CC1` (centres unmarked) [Example 56], the EC50 in assay [1] (setting [3]) is 19.3 nM; in assay [2], greater than 10000 nM.

These data come from patent US20190031618A1, “BENZIMIDAZOLE DERIVATIVES USEFUL AS CB-1 INVERSE AGONISTS” (Janssen Pharmaceutica NV, priority 2015, published 2019).
